{"source": "patent US10918641B2", "about": "“Use of MTAP inhibitors for the treatment of lung disease” (The University of North Carolina at Chapel Hill, priority 2015, dated 2021)", "key": {"[1]": {"biological_target": "T1, human MTAP (Homo sapiens, UniProt Q13126)", "T1 sequence (Q13126 1-283)": "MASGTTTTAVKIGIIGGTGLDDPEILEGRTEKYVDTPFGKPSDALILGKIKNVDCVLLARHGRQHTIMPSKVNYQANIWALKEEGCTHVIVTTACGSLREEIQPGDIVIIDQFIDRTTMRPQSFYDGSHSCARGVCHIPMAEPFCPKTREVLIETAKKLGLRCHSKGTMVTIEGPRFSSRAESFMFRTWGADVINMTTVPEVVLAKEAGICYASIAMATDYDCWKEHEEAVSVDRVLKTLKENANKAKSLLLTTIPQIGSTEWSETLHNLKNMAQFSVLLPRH", "assay": "Inhibition of human MTAP by transition state analogue (Ki*)", "format": "biochemical"}, "[2]": {"test_system": "protein receptor and kinase panels", "assay": "Protein receptor and kinase panels (off-target effects)", "format": "binding"}, "[3]": {"assay": "Acute and seven-day repeat-dose toxicity by gavage in CD-1 mice", "method": "In CD-1 mice, a single dose of MTDIA was administered by gavage to establish acute toxicity (300, 600 and 1000 mg/kg), or once daily for seven consecutive days (0, 600 and 1000 mg/kg/day) to determine repeat-dose toxicity. Mice were monitored for abnormalities, survival rates, histopathological changes (heart, lung, liver, kidney, spleen, small intestine and stomach were evaluated histopathologically by a board certified pathologist), clinical chemistry and complete blood count (CBC) analysis."}, "[4]": {"assay": "Toxicity in in vitro (2D and 3D culture) and in vivo studies to date", "conditions": "all in vitro (2D and 3D culture) and in vivo studies to date"}, "[5]": {"test_system": "Scnn1b-Tg mice", "assay": "15 mg/kg oral gavage once daily for three days in Scnn1b-Tg mice", "format": "in vivo, mouse", "method": "Therefore, we repeated the above study in Scnn1b-Tg mice using 15 mg/kg MTDIA by oral gavage once daily for three days. With the longer treatment, we observed increases in serum (FIG. 8A) and BALF (FIG. 8B) MTA concentrations in treated mice relative to vehicle treated animals (n=13 and 11, respectively), similar to the changes seen with the single dose experiments.\nSimilar differences were observed when BALF inflammatory cells were analyzed as cell differentials rather than cell counts. These findings provide compelling evidence that MTDIA can act as an anti-inflammatory drug in a chronic airways disease model."}, "[6]": {"assay": "Stability of MTDIA in drinking water (MS method)", "format": "physicochemical", "conditions": "three days, room temperature"}, "[7]": {"test_system": "MTA metabolism at MTAP", "assay": "MTDIA in drinking water of WT mice, serum and BALF MTA", "format": "in vivo", "method": "The effect of a range of MTDIA concentrations in drinking water on serum and BALF MTA concentrations in WT mice is explored using protocols similar to those described above, except that MTDIA is delivered in drinking water rather than oral gavage. In preliminary experiments, we calculated that 75 μg/mL of MTDIA in drinking water would deliver a dose of 15 mg/kg per day that we utilized in our single dose experiments (based on estimates of a 25 g mouse drinking […] water per day), and we examined WT mice treated with this dose as well as half of this dose (37.5 μg/mL) relative to mice drinking untreated water. […] Once this dose is established, this dose is tested over three days in our Scnn1b-Tg and CF/Scnn1b-Tg mice to ensure that we observe similar effects in these models."}, "[8]": {"biological_target": "MTAP (Mus musculus, UniProt Q9CQ65)", "sequence (Q9CQ65 whole entry)": "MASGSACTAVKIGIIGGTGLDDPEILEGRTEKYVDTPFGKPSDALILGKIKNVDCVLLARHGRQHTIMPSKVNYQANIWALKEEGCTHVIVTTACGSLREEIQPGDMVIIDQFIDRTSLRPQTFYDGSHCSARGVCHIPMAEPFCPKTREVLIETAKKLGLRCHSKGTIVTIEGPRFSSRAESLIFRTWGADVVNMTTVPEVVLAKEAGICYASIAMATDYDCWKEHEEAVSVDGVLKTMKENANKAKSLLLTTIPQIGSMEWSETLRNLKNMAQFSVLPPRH"}, "[9]": {"test_system": "MTA metabolism at MTAP"}, "[10]": {"test_system": "MTA metabolism at MTAP", "remark": "listed apart in the source", "description": "A) Serum MTA concentrations after single oral dose of various concentrations of MTDIA (range 0.6-150 mg/kg, numbers on graph represent dose in mg/kg MTDIA) as well as a 10 mg/kg dose IV."}, "[11]": {"assay": "physchem", "conditions": "PBS, aqueous buffer"}, "[12]": {"assay": "Metabolic stability in human hepatocytes and microsomes"}, "[13]": {"test_system": "Scnn1b-Tg mice", "assay": "Single 15 mg/kg oral gavage dose in WT and Scnn1b-Tg mice"}, "[14]": {"assay": "MTDIA plasma pharmacokinetics after oral or i.p. dose in CD-1 mice", "conditions": "in words"}, "[15]": {"conditions": "15 mg/kg once daily, three days"}}, "note": "“Also recorded” adds a separate entry of the source."}
{"smiles": "CSC[C@H]1CN(Cc2c[nH]c3c(N)ncnc23)C[C@@H]1O", "note": "[MTDIA, (3R,4S)-1-[(9-deazaadenin-9-yl)methyl]-3-hydroxy-4-(methylthiomethyl)pyrrolidine]", "values": [{"measurement": "Ki", "setting": "[1]", "result": 0.086, "unit": "nM"}, {"measurement": "Affinity for MTAP", "setting": "[1]; in words", "result": "picomolar affinity"}, {"measurement": "Off-target effects in protein receptor and kinase panels", "setting": "[2]", "result": "minimal off-target effects"}, {"measurement": "LOAEL (Lowest-Observed-Adverse-Effect level)", "setting": "[3]; CD-1 mice, gavage", "result": 600, "unit": "mg/kg/day"}, {"measurement": "Histopathological findings", "setting": "[3]; mouse, in vivo", "result": "No histopathological findings were detected"}, {"measurement": "Toxicity observed", "setting": "[4]", "result": "No significant toxicity"}, {"measurement": "BALF MTA concentrations vs. vehicle", "setting": "[5]; [15]", "result": "increases"}, {"measurement": "Free concentrations of spermine and spermidine in serum or BALF", "setting": "[5]; [15]", "result": "did not observe large changes; also recorded: minimal changes"}, {"measurement": "Serum MTA concentrations vs. vehicle", "setting": "[5]; [15]", "result": "increases; also recorded: increased serum MTA concentrations"}, {"measurement": "Bronchus-associated lymphoid tissue (BALT), lung histology", "setting": "[5]; three days of MTDIA treatment", "result": "meaningfully reduced; also recorded: greatly reduced"}, {"measurement": "Enlarged activated macrophage phenotype (BALF cytospins)", "setting": "[5]; three days of MTDIA treatment", "result": "appears to be reduced; also recorded: resolve to a more WT appearance"}, {"measurement": "BALF macrophage cell counts", "setting": "[5]; three days oral MTDIA", "result": "corresponding increase"}, {"measurement": "BALF eosinophil cell count", "setting": "[5]; three days oral MTDIA, vehicle 14.2+13.5, p<0.001", "result": "2.2+3.2 ×10^3 cells/ml"}, {"measurement": "BALF neutrophil cell count", "setting": "[5]; three days oral MTDIA, vehicle 32.0+16.9, p<0.001", "result": "11.5+8.2 ×10^3 cells/ml"}, {"measurement": "Stability in drinking water", "setting": "[6]", "result": "stable"}, {"measurement": "Serum MTA concentrations vs. control", "setting": "[7]; 37.5 μg/mL in drinking water", "result": "more than two orders of magnitude higher than control; also recorded: orders of magnitude increases"}, {"measurement": "Serum MTA concentrations vs. control", "setting": "[7]; 75 μg/mL in drinking water", "result": "more than two orders of magnitude higher than control; also recorded: orders of magnitude increases"}, {"measurement": "BALF MTA vs. control", "setting": "[7]; 37.5 or 75 μg/mL in drinking water", "result": "less dramatic increases; also recorded: increased BALF MTA concentrations"}, {"measurement": "Duration of inhibition of MTAP activity in vivo", "setting": "[8]; an oral or i.p. dose", "result": "> 24", "unit": "h"}, {"measurement": "Time for MTAP catalytic activity in mouse serum to return to normal", "setting": "[8]; single oral dose 15 mg/kg", "result": "≤ 36", "unit": "h"}, {"measurement": "Time for which catalytic activity of MTAP in mouse serum is completely inhibited", "setting": "[8]; single oral dose 15 mg/kg", "result": 24, "unit": "h"}, {"measurement": "Urinary MTA", "setting": "[9]; 15 mg/kg, mice", "result": "approximately 30 μM"}, {"measurement": "Increase of plasma MTA levels", "setting": "[9]; 15 mg/kg, mice, after 30 min", "result": "> 100", "unit": "fold"}, {"measurement": "Decrease in polyamine concentrations", "setting": "[9]; an oral or i.p. dose", "result": "~2", "unit": "fold"}, {"measurement": "MTA accumulation in plasma over baseline levels", "setting": "[9]; an oral or i.p. dose", "result": "> 100", "unit": "fold"}, {"measurement": "Oral dose yielding maximal response in serum MTA concentrations", "setting": "[10]; previous experiments, as stated in Example 7", "result": 15, "unit": "mg/kg"}, {"measurement": "Oral dose with maximum effect on serum MTA concentrations", "setting": "[10]; single oral dose range 0.6-150 mg/kg (FIG. 7A legend)", "result": 30, "unit": "mg/kg"}, {"measurement": "solubility", "setting": "[11]", "result": 156, "unit": "mM"}, {"measurement": "Time metabolically stable", "setting": "[12]; in vitro, human hepatocytes and microsomes", "result": "over 4 hr"}, {"measurement": "Metabolic stability in microsomes and hepatocytes", "setting": "[12]; in words", "result": "metabolically stable"}, {"measurement": "BALF inflammatory markers", "setting": "[13]; after a single dose", "result": "did not observe any changes"}, {"measurement": "Serum MTA concentrations", "setting": "[13]; single 15 mg/kg oral gavage, 24 hours, WT and Scnn1b-Tg mice, 15 mg/kg", "result": "increase; also recorded: increases serum MTA"}, {"measurement": "Oral availability", "setting": "[14]", "result": "orally available"}]}
